Measurements reported in ChEMBL document CHEMBL3217656, “Identification of a potent salicylic acid-based inhibitor of tyrosine phosphatase PTP1B” (Medchemcomm, 2013).
Active and inactive are the calls of the source. No cut-off for these calls is given here.

Experiments:
Papain (Carica papaya) = molecular target: T1, Papain (Carica papaya) (UniProt P00784); assay: Inhibition of papaya papain assessed as Z-Phe-Arg-pNA hydrolysis at 10 uM by fluorometric kinetic-based assay
T1 sequence (whole entry): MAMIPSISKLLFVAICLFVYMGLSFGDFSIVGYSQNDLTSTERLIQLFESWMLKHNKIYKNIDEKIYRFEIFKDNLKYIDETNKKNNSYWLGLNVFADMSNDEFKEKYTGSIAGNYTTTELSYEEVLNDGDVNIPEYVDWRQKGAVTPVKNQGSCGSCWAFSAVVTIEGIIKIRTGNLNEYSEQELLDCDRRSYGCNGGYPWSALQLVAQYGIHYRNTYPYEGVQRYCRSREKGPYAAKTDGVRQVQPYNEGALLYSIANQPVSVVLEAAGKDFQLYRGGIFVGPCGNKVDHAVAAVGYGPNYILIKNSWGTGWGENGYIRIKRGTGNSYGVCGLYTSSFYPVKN

[1] = molecular target: T2, Dual specificity protein phosphatase 22 (Homo sapiens) (UniProt Q9NRW4); assay: Inhibition of human GST-tagged full length MKPX assessed as DiFMUP hydrolysis at 10 uM by fluorometric kinetic-based assay
T2 sequence (whole entry): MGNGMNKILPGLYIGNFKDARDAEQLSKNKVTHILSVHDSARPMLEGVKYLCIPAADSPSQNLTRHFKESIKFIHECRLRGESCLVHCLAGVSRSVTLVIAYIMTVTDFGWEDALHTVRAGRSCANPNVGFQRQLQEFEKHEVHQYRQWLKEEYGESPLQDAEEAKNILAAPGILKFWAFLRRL

Papain = molecular target: T3, Papain (Carica papaya, UniProt P00784); assay: Inhibition of papaya papain assessed as Z-Phe-Arg-pNA hydrolysis by fluorometric kinetic-based assay
T3 sequence (P00784 whole entry): T1 sequence (whole entry)

[2] = molecular target: Receptor-type tyrosine-protein phosphatase F (Homo sapiens) (UniProt P10586); assay: Inhibition of human GST-tagged PTP-LAR D1D2 domain assessed as DiFMUP hydrolysis at 10 uM by fluorometric kinetic-based assay
[3] = molecular target: T4, Tyrosine-protein phosphatase non-receptor type 1 (Homo sapiens) (UniProt P18031); assay: Inhibition of human GST-tagged PTP1B catalytic domain assessed as DiFMUP hydrolysis at 10 uM by fluorometric kinetic-based assay
T4 sequence (whole entry): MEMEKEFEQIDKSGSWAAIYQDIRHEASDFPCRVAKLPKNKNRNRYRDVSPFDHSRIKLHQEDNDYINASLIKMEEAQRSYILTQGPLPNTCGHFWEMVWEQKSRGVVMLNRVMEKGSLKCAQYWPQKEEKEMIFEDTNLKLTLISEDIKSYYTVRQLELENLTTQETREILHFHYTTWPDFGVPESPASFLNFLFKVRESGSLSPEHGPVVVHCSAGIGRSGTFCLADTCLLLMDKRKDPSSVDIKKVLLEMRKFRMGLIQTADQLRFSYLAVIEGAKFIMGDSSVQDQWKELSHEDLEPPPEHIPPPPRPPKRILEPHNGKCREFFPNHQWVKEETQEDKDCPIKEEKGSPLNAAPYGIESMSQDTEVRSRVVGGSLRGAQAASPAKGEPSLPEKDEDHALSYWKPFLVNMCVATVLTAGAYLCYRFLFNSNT

[4] = molecular target: T5, Receptor-type tyrosine-protein phosphatase S (Homo sapiens, UniProt Q13332); assay: Inhibition of human GST-tagged PTP-sigma D1D2 domain assessed as DiFMUP hydrolysis at 10 uM by fluorometric kinetic-based assay
[5] = Inhibition of human GST-tagged PRL2 A/S active mutant assessed as DiFMUP hydrolysis by fluorometric kinetic-based assay
[6] = molecular target: T6, Dual specificity protein phosphatase 22 (Homo sapiens, UniProt Q9NRW4); assay: Inhibition of human GST-tagged full length MKPX assessed as DiFMUP hydrolysis by fluorometric kinetic-based assay
T6 sequence (Q9NRW4 whole entry): T2 sequence (whole entry)

[7] = molecular target: T7, Tyrosine-protein phosphatase non-receptor type 2 (Homo sapiens, UniProt P17706); assay: Inhibition of human GST-tagged TC-PTP catalytic domain assessed as DiFMUP hydrolysis by fluorometric kinetic-based assay
T7 sequence (P17706 whole entry): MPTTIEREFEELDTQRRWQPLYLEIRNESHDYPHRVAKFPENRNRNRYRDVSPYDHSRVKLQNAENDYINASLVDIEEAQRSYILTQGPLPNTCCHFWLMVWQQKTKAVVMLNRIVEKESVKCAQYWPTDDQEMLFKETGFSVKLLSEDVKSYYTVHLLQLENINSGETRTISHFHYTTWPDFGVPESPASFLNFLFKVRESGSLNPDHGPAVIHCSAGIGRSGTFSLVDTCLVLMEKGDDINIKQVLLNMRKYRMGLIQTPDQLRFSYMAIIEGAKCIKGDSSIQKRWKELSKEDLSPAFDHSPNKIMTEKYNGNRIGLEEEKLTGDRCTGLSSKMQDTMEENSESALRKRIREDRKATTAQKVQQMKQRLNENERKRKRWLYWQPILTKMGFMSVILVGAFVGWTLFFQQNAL

[8] = molecular target: T8, Tyrosine-protein phosphatase non-receptor type 1 (Homo sapiens, UniProt P18031); assay: Inhibition of human GST-tagged PTP1B catalytic domain assessed as DiFMUP hydrolysis by fluorometric kinetic-based assay
T8 sequence (P18031 whole entry): T4 sequence (whole entry)

[9] = molecular target: T9, Tyrosine-protein phosphatase non-receptor type 2 (Homo sapiens) (UniProt P17706); assay: Inhibition of human GST-tagged TC-PTP catalytic domain assessed as DiFMUP hydrolysis at 10 uM by fluorometric kinetic-based assay
T9 sequence (whole entry): T7 sequence (P17706 whole entry)

[10] = molecular target: T5, Receptor-type tyrosine-protein phosphatase S; assay: Inhibition of human GST-tagged PTP-sigma D1D2 domain assessed as DiFMUP hydrolysis by fluorometric kinetic-based assay
Homo sapiens = species: Homo sapiens; assay: Inhibition of human GST-tagged PRL2 A/S active mutant assessed as DiFMUP hydrolysis at 10 uM by fluorometric kinetic-based assay
[11] = molecular target: T7, Tyrosine-protein phosphatase non-receptor type 2; assay: Inhibition of TC-PTP (unknown origin) expressed in Escherichia coli cells assessed as p-nitrophenyl phosphate hydrolysis by spectrophotometric analysis
[12] = molecular target: T8, Tyrosine-protein phosphatase non-receptor type 1; assay: Inhibition of PTP1B (unknown origin) expressed in Escherichia coli cells assessed as p-nitrophenyl phosphate hydrolysis by spectrophotometric analysis
CHO [13] = assay: Inhibition of PTP1B in Chinese hamster CHO cells overexpressing IR assessed as insulin-stimulated IR phosphorylation treated for 3 hrs prior to insulin stimulation for 15 mins by western blot analysis; format: cell-based; settings: Cricetulus griseus
[14] = molecular target: T4, Tyrosine-protein phosphatase non-receptor type 1 (Homo sapiens); assay: Mixed inhibition of human GST-tagged PTP1B catalytic domain assessed as rate of DiFMUP hydrolysis by lineweaver-burk plot analysis
CHO [15] = assay: Cytotoxicity against Chinese hamster CHO cells overexpressing IR assessed as slight reduction in cell viability at >50 uM by xCELLigence system; format: cell-based, Cricetulus griseus
[16] = molecular target: Receptor-type tyrosine-protein phosphatase F (Homo sapiens) (UniProt P10586); assay: Inhibition of human GST-tagged PTP-LAR D1D2 domain assessed as DiFMUP hydrolysis by fluorometric kinetic-based assay
CHO [17] = assay: Cytotoxicity against Chinese hamster CHO cells overexpressing IR assessed as cell proliferation rate at 0.4 to 10 uM by xCELLigence system; format: cell-based, Cricetulus griseus
[18] = molecular target: T8, Tyrosine-protein phosphatase non-receptor type 1; assay: Competitive inhibition of human GST-tagged PTP1B catalytic domain assessed as rate of DiFMUP hydrolysis by lineweaver-burk plot analysis
CHO [19] = assay: Cytotoxicity against Chinese hamster CHO cells overexpressing IR assessed as cell proliferation rate at 50 uM by xCELLigence system; format: cell-based, Cricetulus griseus

T5 sequence (Q13332 whole entry, the tested form may be a part): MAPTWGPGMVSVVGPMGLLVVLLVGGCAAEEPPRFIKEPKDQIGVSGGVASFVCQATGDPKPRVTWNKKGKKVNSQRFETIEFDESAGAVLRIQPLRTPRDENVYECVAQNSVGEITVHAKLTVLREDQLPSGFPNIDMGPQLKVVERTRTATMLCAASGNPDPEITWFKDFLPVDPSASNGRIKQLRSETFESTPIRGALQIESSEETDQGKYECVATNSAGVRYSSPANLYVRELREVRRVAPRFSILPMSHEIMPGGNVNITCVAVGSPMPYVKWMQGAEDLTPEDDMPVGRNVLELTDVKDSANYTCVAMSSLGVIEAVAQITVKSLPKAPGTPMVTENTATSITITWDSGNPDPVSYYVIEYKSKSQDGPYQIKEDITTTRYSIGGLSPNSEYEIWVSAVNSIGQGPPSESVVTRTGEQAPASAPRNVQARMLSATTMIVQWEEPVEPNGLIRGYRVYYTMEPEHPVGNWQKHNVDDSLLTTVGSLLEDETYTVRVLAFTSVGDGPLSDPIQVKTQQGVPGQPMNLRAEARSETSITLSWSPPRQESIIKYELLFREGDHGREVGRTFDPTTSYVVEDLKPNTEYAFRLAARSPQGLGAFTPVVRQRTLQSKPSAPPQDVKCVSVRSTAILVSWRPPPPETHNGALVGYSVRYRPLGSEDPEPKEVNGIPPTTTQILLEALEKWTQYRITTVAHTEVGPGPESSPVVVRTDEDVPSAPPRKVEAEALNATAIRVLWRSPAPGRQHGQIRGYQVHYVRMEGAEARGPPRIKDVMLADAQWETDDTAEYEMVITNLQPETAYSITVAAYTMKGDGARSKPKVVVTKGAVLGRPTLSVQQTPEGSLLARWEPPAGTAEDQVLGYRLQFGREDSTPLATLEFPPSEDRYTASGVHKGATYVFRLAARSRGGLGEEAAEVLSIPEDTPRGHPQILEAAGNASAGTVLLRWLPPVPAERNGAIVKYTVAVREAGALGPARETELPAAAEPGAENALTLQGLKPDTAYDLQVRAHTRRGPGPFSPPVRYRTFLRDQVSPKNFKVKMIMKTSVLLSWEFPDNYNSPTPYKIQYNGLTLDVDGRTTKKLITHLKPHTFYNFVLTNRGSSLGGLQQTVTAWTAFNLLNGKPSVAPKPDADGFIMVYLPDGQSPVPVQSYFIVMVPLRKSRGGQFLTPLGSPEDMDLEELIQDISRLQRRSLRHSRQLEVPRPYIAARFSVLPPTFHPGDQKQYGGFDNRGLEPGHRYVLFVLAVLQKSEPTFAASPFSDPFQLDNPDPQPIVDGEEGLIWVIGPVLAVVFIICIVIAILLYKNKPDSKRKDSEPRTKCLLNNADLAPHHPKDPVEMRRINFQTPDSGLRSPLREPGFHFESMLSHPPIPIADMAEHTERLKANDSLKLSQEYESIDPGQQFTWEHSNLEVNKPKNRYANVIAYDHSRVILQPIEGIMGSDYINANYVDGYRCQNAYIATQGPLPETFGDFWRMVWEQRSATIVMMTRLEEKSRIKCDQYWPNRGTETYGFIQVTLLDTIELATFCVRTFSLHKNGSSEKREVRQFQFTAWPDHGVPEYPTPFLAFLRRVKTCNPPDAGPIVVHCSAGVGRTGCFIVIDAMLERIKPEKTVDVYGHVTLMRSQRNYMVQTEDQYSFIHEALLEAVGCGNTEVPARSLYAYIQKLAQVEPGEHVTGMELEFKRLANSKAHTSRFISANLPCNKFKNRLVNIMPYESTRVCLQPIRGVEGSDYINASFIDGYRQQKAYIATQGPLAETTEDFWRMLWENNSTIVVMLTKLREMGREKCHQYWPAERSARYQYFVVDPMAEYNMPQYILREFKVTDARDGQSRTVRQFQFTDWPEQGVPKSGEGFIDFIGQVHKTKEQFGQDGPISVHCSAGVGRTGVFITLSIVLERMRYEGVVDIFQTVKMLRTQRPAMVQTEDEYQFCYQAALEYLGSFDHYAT
Receptor-type tyrosine-protein phosphatase F (Homo sapiens), sequence (P10586 whole entry, the tested form may be a part): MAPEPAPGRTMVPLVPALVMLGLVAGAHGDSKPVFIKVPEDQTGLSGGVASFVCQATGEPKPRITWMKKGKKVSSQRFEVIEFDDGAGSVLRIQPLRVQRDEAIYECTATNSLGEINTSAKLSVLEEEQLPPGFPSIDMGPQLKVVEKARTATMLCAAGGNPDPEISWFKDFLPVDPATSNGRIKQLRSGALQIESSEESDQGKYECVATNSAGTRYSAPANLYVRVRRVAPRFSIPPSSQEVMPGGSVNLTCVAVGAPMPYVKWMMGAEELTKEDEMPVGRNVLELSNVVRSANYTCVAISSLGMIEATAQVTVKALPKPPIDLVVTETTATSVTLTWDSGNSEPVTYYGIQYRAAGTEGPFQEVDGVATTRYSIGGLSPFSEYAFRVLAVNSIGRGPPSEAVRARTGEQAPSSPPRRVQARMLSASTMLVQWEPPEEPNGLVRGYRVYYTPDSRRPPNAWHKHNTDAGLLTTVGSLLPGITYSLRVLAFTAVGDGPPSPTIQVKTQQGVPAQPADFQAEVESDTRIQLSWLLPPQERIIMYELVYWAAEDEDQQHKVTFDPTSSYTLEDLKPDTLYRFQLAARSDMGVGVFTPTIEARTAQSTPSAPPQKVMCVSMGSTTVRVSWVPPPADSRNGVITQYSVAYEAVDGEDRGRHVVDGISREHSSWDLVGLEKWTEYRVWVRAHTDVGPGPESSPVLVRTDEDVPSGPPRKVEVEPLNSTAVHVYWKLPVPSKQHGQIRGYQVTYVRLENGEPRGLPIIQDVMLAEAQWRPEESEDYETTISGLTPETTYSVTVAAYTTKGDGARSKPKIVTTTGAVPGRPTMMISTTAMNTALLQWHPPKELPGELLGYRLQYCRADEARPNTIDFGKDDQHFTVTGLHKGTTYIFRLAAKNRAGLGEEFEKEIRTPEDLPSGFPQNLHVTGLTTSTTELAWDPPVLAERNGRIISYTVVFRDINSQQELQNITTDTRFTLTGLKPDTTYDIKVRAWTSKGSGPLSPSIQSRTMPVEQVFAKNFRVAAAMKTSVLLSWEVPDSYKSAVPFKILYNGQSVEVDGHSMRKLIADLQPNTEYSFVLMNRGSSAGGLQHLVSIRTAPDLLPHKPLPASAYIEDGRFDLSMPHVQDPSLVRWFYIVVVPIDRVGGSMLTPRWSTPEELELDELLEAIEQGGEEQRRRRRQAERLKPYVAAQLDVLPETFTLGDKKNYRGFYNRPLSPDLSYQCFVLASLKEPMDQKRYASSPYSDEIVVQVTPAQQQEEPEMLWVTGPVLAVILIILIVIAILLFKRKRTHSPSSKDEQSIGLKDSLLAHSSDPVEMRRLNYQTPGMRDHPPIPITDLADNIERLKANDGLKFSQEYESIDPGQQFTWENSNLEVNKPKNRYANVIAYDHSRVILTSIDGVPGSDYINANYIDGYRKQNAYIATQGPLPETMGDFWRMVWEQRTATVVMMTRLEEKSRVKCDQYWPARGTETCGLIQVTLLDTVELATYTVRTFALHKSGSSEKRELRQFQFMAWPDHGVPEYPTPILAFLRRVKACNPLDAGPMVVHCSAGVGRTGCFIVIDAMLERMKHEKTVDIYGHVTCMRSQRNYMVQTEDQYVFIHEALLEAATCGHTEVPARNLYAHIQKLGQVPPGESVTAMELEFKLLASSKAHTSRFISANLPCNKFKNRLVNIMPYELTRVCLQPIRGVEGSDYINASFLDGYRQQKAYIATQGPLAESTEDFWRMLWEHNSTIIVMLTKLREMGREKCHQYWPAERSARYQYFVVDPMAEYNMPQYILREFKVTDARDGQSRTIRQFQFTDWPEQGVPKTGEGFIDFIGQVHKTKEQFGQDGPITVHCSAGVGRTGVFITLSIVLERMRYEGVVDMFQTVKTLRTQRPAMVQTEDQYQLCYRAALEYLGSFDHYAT

Cc1ccc(S(=O)(=O)N(C)CC(=O)N(Cc2ccc(-c3ccc(-c4cccc(C#N)c4)cc3)cc2)c2ccc(C(=O)O)c(O)c2)cc1
inhibition (Papain (Carica papaya)): inactive | inhibition [1]: inactive | IC50 (Papain): > 10 µM | inhibition [2]: inactive | inhibition [3]: > 80% | inhibition [4]: > 80% | IC50 [5]: > 50 µM | IC50 [6]: > 10 µM | IC50 [7]: 5.1 µM | IC50 [8]: 5 µM | inhibition [9]: > 80% | IC50 [10]: 6.1 µM | inhibition (Homo sapiens): inactive

COC(=O)c1cccc(-c2ccc(-c3ccc(CN(C(=O)CN(C)S(=O)(=O)c4ccc(C)cc4)c4ccc(C(=O)O)c(O)c4)cc3)cc2)c1
inhibition (Papain (Carica papaya)): inactive | inhibition [1]: inactive | IC50 (Papain): > 10 µM | inhibition [2]: inactive | inhibition [3]: > 80% | inhibition [4]: > 80% | IC50 [5]: > 50 µM | IC50 [6]: > 10 µM | IC50 [7]: 5.6 µM | IC50 [8]: 4.8 µM | inhibition [9]: > 80% | IC50 [10]: 6.3 µM | inhibition (Homo sapiens): inactive

O=C(Cn1cc(-c2c(-c3ccccc3)oc3cc(O)c(C(=O)O)cc23)nn1)Nc1ccc(N2CCOCC2)cc1
IC50 [11]: 22 µM | IC50 [12]: 19 µM

CN(CC(=O)N(Cc1ccc(C2CCCCC2)cc1)c1ccc(C(=O)O)c(O)c1)S(=O)(=O)c1cccc2cccnc12
inhibition (Papain (Carica papaya)): inactive | inhibition [1]: inactive | IC50 (Papain): > 10 µM | inhibition (CHO [13]): Dose-dependent effect | inhibition [2]: inactive | inhibition [14]: Active | inhibition [3]: > 80% | inhibition [4]: > 80% | IC50 [5]: > 50 µM | IC50 [6]: > 10 µM | IC50 [7]: 4.8 µM | IC50 [8]: 6.2 µM | Activity (CHO [15]): Toxic | inhibition [16]: inactive | inhibition [9]: > 80% | Activity (CHO [17]): Non-toxic | IC50 [10]: 4.3 µM | inhibition (Homo sapiens): inactive

CN(C)c1cccc2c(S(=O)(=O)N(C)CC(=O)N(Cc3ccc(C4CCCCC4)cc3)c3ccc(C(=O)O)c(O)c3)cccc12
inhibition (Papain (Carica papaya)): inactive | inhibition [1]: inactive | IC50 (Papain): > 10 µM | inhibition (CHO [13]): Dose-dependent effect | inhibition [2]: inactive | inhibition [3]: > 80% | inhibition [4]: > 80% | IC50 [5]: > 50 µM | IC50 [6]: > 10 µM | IC50 [7]: 5.1 µM | IC50 [8]: 4.9 µM | Activity (CHO [15]): Toxic | inhibition [16]: inactive | inhibition [9]: > 80% | Activity (CHO [17]): Non-toxic | IC50 [10]: 3.6 µM | Ki [18]: 4 µM | inhibition (Homo sapiens): inactive

CN(CC(=O)N(Cc1ccc(C2CCCCC2)cc1)c1ccc(C(=O)O)c(O)c1)S(=O)(=O)c1cccc2ccccc12
inhibition (Papain (Carica papaya)): inactive | inhibition [1]: inactive | IC50 (Papain): > 10 µM | inhibition (CHO [13]): Dose-dependent effect | Activity (CHO [19]): Toxic | inhibition [2]: inactive | inhibition [3]: > 80% | inhibition [4]: > 80% | IC50 [5]: > 50 µM | IC50 [6]: > 10 µM | IC50 [7]: 3.9 µM | IC50 [8]: 5.2 µM | inhibition [16]: inactive | inhibition [9]: > 80% | Activity (CHO [17]): Non-toxic | IC50 [10]: 5.2 µM | Ki [18]: 2.1 µM | inhibition (Homo sapiens): inactive

Cc1ccc(S(=O)(=O)N(C)CC(=O)N(Cc2ccc(-c3ccc(-c4cccc(C(N)=O)c4)cc3)cc2)c2ccc(C(=O)O)c(O)c2)cc1
inhibition (Papain (Carica papaya)): inactive | inhibition [1]: inactive | IC50 (Papain): > 10 µM | inhibition [2]: inactive | inhibition [3]: > 80% | inhibition [4]: > 80% | IC50 [5]: > 50 µM | IC50 [6]: > 10 µM | IC50 [7]: 4.4 µM | IC50 [8]: 4.6 µM | inhibition [9]: > 80% | IC50 [10]: 4.6 µM | inhibition (Homo sapiens): inactive
